Test results reported in the supplement of paper PMC10307832.

Legend:
Assay in all cases: relative viability (nuclei count vs DMSO), 5 days (fraction); higher = more cells survive
Linsitinib + Crizotinib = compound: C[C@]1(O)C[C@@H](c2nc(-c3ccc4ccc(-c5ccccc5)nc4c3)c3c(N)nccn32)C1 [Linsitinib] + C[C@@H](Oc1cc(-c2cnn(C3CCNCC3)c2)cnc1N)c1c(Cl)ccc(F)c1Cl [Crizotinib] (partner 1 µM)
Summary of the method: (§1)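 Relative viability is defined as nuclei in treated wells over nuclei in vehicle wells. Duplicate plates were run and medians reported. Lung cancer cell lines in 1536-well plates were dosed by pin tool one day after seeding, with one drug or with a fixed anchor-drug dose plus five library-drug doses (not always all listed) in √10 steps, and nuclei were counted after 5 days.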

Ispinesib + OSI-027 = compound: Cc1ccc(C(=O)N(CCCN)[C@@H](c2nc3cc(Cl)ccc3c(=O)n2Cc2ccccc2)C(C)C)cc1 [Ispinesib] + COc1cccc2cc(-c3nc([C@H]4CC[C@H](C(=O)O)CC4)n4ncnc(N)c34)[nH]c12 [OSI-027] (partner 0.5 µM)
Summary of the method: as §1

Ispinesib + Decitabine = compound: Cc1ccc(C(=O)N(CCCN)[C@@H](c2nc3cc(Cl)ccc3c(=O)n2Cc2ccccc2)C(C)C)cc1 [Ispinesib] + Nc1ncn([C@H]2C[C@H](O)[C@@H](CO)O2)c(=O)n1 [Decitabine] (partner 2 µM)
Summary of the method: as §1

Linsitinib + Lapatinib = compound: C[C@]1(O)C[C@@H](c2nc(-c3ccc4ccc(-c5ccccc5)nc4c3)c3c(N)nccn32)C1 [Linsitinib] + CS(=O)(=O)CCNCc1ccc(-c2ccc3ncnc(Nc4ccc(OCc5cccc(F)c5)c(Cl)c4)c3c2)o1 [Lapatinib] (partner 2 µM)
Summary of the method: as §1

Row | Cell Line | relative viability (Linsitinib + Crizotinib; first compound 0.01 µM) | relative viability (Linsitinib + Crizotinib; first compound 0.03162 µM) | relative viability (Linsitinib + Crizotinib; first compound 0.1 µM) | relative viability (Linsitinib + Crizotinib; first compound 0.3162 µM) | relative viability (Linsitinib + Crizotinib; first compound 1 µM) | relative viability (Ispinesib + OSI-027; first compound 0.001 µM) | relative viability (Ispinesib + OSI-027; first compound 0.003162 µM) | relative viability (Ispinesib + OSI-027; first compound 0.01 µM) | relative viability (Ispinesib + OSI-027; first compound 0.03162 µM) | relative viability (Ispinesib + OSI-027; first compound 0.1 µM) | relative viability (Ispinesib + Decitabine; first compound 0.001 µM) | relative viability (Ispinesib + Decitabine; first compound 0.003162 µM) | relative viability (Ispinesib + Decitabine; first compound 0.01 µM) | relative viability (Ispinesib + Decitabine; first compound 0.03162 µM) | relative viability (Ispinesib + Decitabine; first compound 0.1 µM) | relative viability (Linsitinib + Lapatinib; first compound 0.01 µM) | relative viability (Linsitinib + Lapatinib; first compound 0.03162 µM) | relative viability (Linsitinib + Lapatinib; first compound 0.1 µM) | relative viability (Linsitinib + Lapatinib; first compound 0.3162 µM) | relative viability (Linsitinib + Lapatinib; first compound 1 µM)
1 | NCI-H3122 | 0.261 | 0.281 | 0.282 | 0.323 | 0.323 | 1.07 | 1.38 | 1.06 | 0.218 | 0.14 | 0.498 | 0.443 | 0.426 | 0.483 | 0.292 | 1.04 | 1.06 | 0.982 | 0.737 | 1.12
2 | LCLC-97TM1 | 0.336 | 0.416 | 0.525 | 0.263 | 0.305 | 0.629 | 0.616 | 0.553 | 0.239 | 0.12 | 0.248 | 0.24 | 0.303 | 0.235 | 0.19 | 0.953 | 0.75 | 0.639 | 0.403 | 0.193
3 | COR-L23 | 0.611 | 0.672 | 0.742 | 0.556 | 0.658 | 0.808 | 0.918 | 0.931 | 0.357 | 0.214 | 0.447 | 0.388 | 0.454 | 0.176 | 0.141 | 0.798 | 0.916 | 1.16 | 0.825 | 0.944
4 | EMC-BAC-2 | 0.8 | 0.738 | 0.696 | 0.517 | 0.688 | 0.388 | 0.402 | 0.356 | 0.25 | 0.309 | 0.933 | 1.13 | 1.04 | 0.775 | 0.47 | 0.914 | 0.893 | 0.806 | 0.686 | 0.694
5 | NCI-H1944 | 1.05 | 1.21 | 1.17 | 0.926 | 0.892 | 0.398 | 0.449 | 0.426 | 0.338 | 0.17 | 0.416 | 0.412 | 0.467 | 0.417 | 0.443 | 0.787 | 0.833 | 0.872 | 0.527 | 0.46
6 | A-427 | 0.872 | 0.779 | 1.04 |  | 0.726 | 0.508 | 0.449 | 0.571 | 0.155 | 0.181 | 0.578 | 0.539 | 0.587 | 0.395 | 0.3 | 1.02 | 0.723 | 1.06 |  | 1.08
7 | NCI-H520 | 0.844 | 0.615 | 0.953 |  | 0.817 | 0.249 | 0.218 | 0.276 | 0.19 | 0.169 | 0.54 | 0.469 | 0.33 | 0.226 | 0.227 | 0.934 | 0.462 | 0.979 |  | 0.929
8 | NCI-H650 | 0.736 | 0.907 | 0.857 |  | 0.703 | 0.571 | 0.624 | 0.585 | 0.381 | 0.23 | 0.289 | 0.325 | 0.328 | 0.33 | 0.306 | 0.701 | 0.926 | 0.871 |  | 0.646
9 | COR-L 105 | 0.938 | 0.7 | 0.845 | 0.631 | 0.471 | 0.769 | 0.603 | 0.585 | 0.266 | 0.305 | 0.595 | 0.662 | 0.67 | 0.43 | 0.337 | 0.452 | 0.35 | 0.357 | 0.325 | 0.296
10 | NCI-H1755 | 0.833 | 0.85 | 0.901 | 0.825 | 0.81 | 0.665 | 0.791 | 0.859 | 0.57 | 0.321 | 0.704 | 0.771 | 0.758 | 0.75 | 0.72 | 1.01 | 1.02 | 1.04 | 0.54 | 0.876
11 | NCI-H2085 | 0.956 | 0.939 | 0.999 | 0.68 | 0.763 | 0.815 | 0.715 | 0.824 | 0.541 | 0.264 | 0.487 | 0.524 | 0.581 | 0.577 | 0.556 | 0.701 | 0.822 | 0.822 | 0.753 | 0.658
12 | NCI-H2023 | 0.57 | 0.474 | 0.753 | 0.374 | 0.359 | 0.467 | 0.421 | 0.404 | 0.163 | 0.143 | 0.226 | 0.233 | 0.247 | 0.129 | 0.103 | 0.821 | 0.411 | 0.895 | 0.0717 | 0.408
13 | HOP-62 | 0.959 | 1.02 | 0.798 |  | 0.954 | 0.756 | 1.07 | 1.05 | 0.76 | 0.444 | 0.22 | 0.191 | 0.226 | 0.224 | 0.23 | 1.06 | 1.15 | 1.01 |  | 0.631
